Data on two molecules can be found in US20040214767A1, “Regulation of follicular development and ovulation by cytoskeletal genes and gene products” (priority 2002, published 2004).

The assay deals with rat primary granulosa cells. Description: Effects of CHX and alpha-amanitin on FSH/forskolin-induced expression of cytoskeletal genes in granulosa cells. Format: cell-based. As to conditions: for β-tubulin mRNA: with or without FSH. The method, then:
FIG. 8. Effects of CHX and alpha-amanitin treatment on the FSH/forskolin-induced expression of the cytoskeletal genes. Granulosa cells were isolated from the ovaries of 170 estradiol primed 24 day old immature rats. They were cultured in the medium containing FSH (30 ng/ml) or forskolin (10 microM, FSK) in the presence or absence of CHX (10 μg/ml) for 6 hours (A) or 24 hours (B). In addition, the 24 hours cells were also cultured, likewise, in the presence of alpha-amanitin (30 microg/ml, AMA). Total RNA was isolated and analyzed for mRNAs of TM4, Khc, beta-tubulin and inhibin alpha as described in the description of FIG. 7. Values are the meanfold increase over control (no treatment)±SE. Values were pooled from two separate experiments.
As a step to determine the mechanisms of the FSH-responsive mRNA expression, the granulosa cells were treated with FSH in the presence or absence of a translation inhibitor, CHX, and a transcription inhibitor, alpha amanitin.
Eighteen to twenty-one day old Sprague-Dawley female pups with nursing mothers were purchased from Harlan Breeding Company (Indianapolis, Ind.) and housed in a photoperiod of 14 h light/10 h darkness with light on at 0500 h. For in situ hybridization, rats were injected subcuteneoulsy with 15 IU PMSG (Sigma) in 0.1 ml PBS on 22-23 days of age. Depending on the experiments, PMSG 48 hours-primed rats were injected i.p. with 10 IU hCG. Ovaries were frozen on dry ice immediately after excision and stored at −80 C. […] Ovaries were collected in ice-cold serum-free 4F medium consisting of 15 mM HEPES (pH 7.4), 50% DMEM and 50% Ham's F12 with bovine transferrin (5 micro g/ml), human insulin (2 mg/ml), hydrocortisone (40 ng/ml) and antibiotics, and processed as previously described. Cells were washed three times, resuspended in 4F, plated on serum-coated. Six-well plate (1×10^6 cells in 2 ml per well), and incubated at 37 C for 16 hours. FSH (30 ng/ml) or forskolin (10 micro M) was added to the cell cultures. For the inhibition of protein synthesis or transcription, 10 micro g/ml of cycloheximide (CHX) or alpha-amanitin (30 microg/ml) was, respectively, added 1 h before hormone treatment.
RT-PCR was performed essentially as previously described (Ko, et al., Endocrinology 140:5185-5194. Total RNA (1-2 micro g) was reverse-transcribed at 37 C in a 20 micro L reaction volume using random hexamer (500 ng) and MMLV reverse transcriptase (10 units) (New England BioLabs, Boston, Mass.). Complementary DNA (cDNA) samples (2 micro L) were added to a total 25 micro L reaction mix containing the primers (200 ng each), 0.4 mM dNTP mixture, and Taq DNA polymerase (2.5 U) in 1×PCR buffer (10 mM Tris, pH 8.3, 50 mM KCl, 1.5 mM MgCl2, 0.01% gelatin). All PCR amplifications were carried out for 20, 25 or 30 cycles on a MJ Research Minicycler. PCR products were separated by 2% agarose gel electrophoresis, stained with SYBR® Green I (Molecular Probes), and visualized by phosphoimaging technology (FLA-2000; Fuji, Stamford, Conn.). The following primers were used in the present studies: TM4 (5′-gag aac tcc tga ctg aac tgg acg-3′(SEQ ID NO. 1) and 5′-cca tat tcc ctg ctg agc gta g-3′(SEQ ID NO. 2), 282 bp), Khc (5′-aac tga atc gcc tcc aag cag-3′ and 5′-cga act ggc gag aac tgg atg-3′, 195 bp), β-tubulin (5′-cct gct cat cag caa gat tcg-3′(SEQ ID NO. 3) and 5′-gtg gtg agc tta agg gta cgg, (SEQ ID NOI 4) 210 bp), and inhibin alpha subunit (5′-gct ttc cct ctg ttg acc cac-3′ (SEQ ID NO. 5) and 5′-aga tgt tga ggg cag ctc gat-3′, (SEQ ID NO. 6) 255 bp). L-19 (5′-ctg aag gtc aaa ggg aat gtg-3 (SEQ ID NO. 7) and 5′-gga cag agt ctt gat gat ctc, (SEQ ID NO. 8) 194 bp) oligo nucleotide primers were used to amplify ribosomal protein L-19 as an internal control.

The mark [1] stands for this setting: CHX, cells treated with FSH for 24 hours.
Where [2] appears, read: CHX, cells treated with FSH for six hours.
The mark [3] stands for this setting: cells treated with FSH for 24 hours.
[4] abbreviates: alpha-amanitin 30 microg/ml, 24 hours.

For `C[C@@H]1C[C@@H]([C@H](O)CC2CC(=O)NC(=O)C2)C(=O)[C@@H](C)C1` [CHX, cycloheximide], the “β-tubulin mRNA level” value (24 hours FSH in the presence of CHX) is “decreased to apparent basal level”. Besides, the “β-tubulin mRNA” value (CHX 10 μg/ml, 6 hours) is recorded as “could not be detected”. For the same molecule, under setting [1], the “TM4 mRNA level” value is recorded as “slightly enhancing” and the “inhibin alpha mRNA level” value is given as “substantially suppressing”. In addition, under setting [2], the “Khc mRNA level” value is listed as “lowered the Khc mRNA level, though not completely”; the “TM4 mRNA level” value was “increased”; the “inhibin alpha mRNA level” value is “increased”. For the same molecule, the “effect on Khc mRNA level” value under setting [3] is recorded as “marginal”.

For the molecule `CC[C@H](C)[C@@H]1NC(=O)CNC(=O)[C@@H]2Cc3c([nH]c4cc(O)ccc34)[S+]([O-])C[C@@H](NC(=O)CNC1=O)C(=O)N[C@@H](CC(N)=O)C(=O)N1C[C@H](O)C[C@H]1C(=O)N[C@@H]([C@@H](C)[C@@H](O)CO)C(=O)N2` (stereo partly drawn) [alpha amanitin, alpha-amanitin], under setting [4], the “FSH-induced mRNA expression of all of the cytoskeletal and inhibin alpha genes” value was “blocked”; the “β-tubulin mRNA” value is “blocked both the maintenance and FSH dependent increase”. For the same molecule, under setting [3], the “effect on Khc mRNA level” value was “marginal”.
